This is an account of results in ChEMBL document CHEMBL2407031, “Structure-activity relationship study of phenylpyrazole derivatives as a novel class of anti-HIV agents” (Bioorg Med Chem Lett, 2013).

Series [1] relates to Human immunodeficiency virus 1. The series can be described thus: Antiviral activity against HIV-1 infected in human NCK45 cells assessed as inhibition of infection after 48 hrs by dual-reporter gene assay. Particulars: Human immunodeficiency virus 1, NCK45, 48 h. The format is functional, organism-based. In general terms: A reporter such as luciferase makes a cellular process visible.

Series [2] is described as follows: Cytotoxicity against human NCK45 cells at 1 uM. Particulars: nck45, 1 µM. The format is cell-based.
Series [3] can be described thus: Cytotoxicity against human NCK45 cells at 10 uM. The format is cell-based. The conditions noted are these: nck45, 10 µM.

What is called EC50 is the concentration giving half of the maximal effect. With `CCC(=O)Nc1cc(CNc2c(C#N)c(C)nn2-c2cccc(Br)c2)cc(Cl)c1O`, the EC50 in series [1] was greater than 100 nM. Also, in series [2], the Activity entry was “Toxic”.
For `CCC(=O)Nc1cc(/N=N/c2c(C#N)c(C)nn2-c2ccccc2)cc(Cl)c1O`, the EC50 in series [1] was 320 nM.
For `CCC(=O)Nc1cc(CNc2c(C#N)c(C)nn2C2CCCCC2)cc(Cl)c1O`, the EC50 in series [1] is greater than 1000 nM. For the same compound, in series [3], the Activity entry is recorded as “Toxic”.
Regarding `CCC(=O)Nc1cc(CNc2c(C#N)c(C)nn2-c2cccnc2)cc(Cl)c1O`, the EC50 in series [1] is greater than 10000 nM.
Same read-out and setting: the figure for `CCCC(=O)Nc1cc(CNc2c(C#N)c(C)nn2-c2ccccc2)cc(Cl)c1O` is 3300 nM; for `CCC(=O)Nc1cc(CNc2c(C#N)c(C)nn2-c2ccc3ncccc3c2)cc(Cl)c1O` it is greater than 10000 nM.
With `CCC(=O)Nc1cc(CNc2c(C(=O)OC)c(C)nn2-c2ccccc2)cc(Cl)c1O`, the EC50 in series [1] is greater than 1000 nM. Besides, in series [3], the Activity result is on record as “Toxic”.
Consider `CCC(=O)Nc1cc(CNc2c(C#N)c(C)nn2-c2ccccn2)cc(Cl)c1O`, for which the EC50 in series [1] was greater than 100 nM. Besides, in series [2], the Activity result was “Toxic”.
For the compound `CCC(=O)Nc1cc(CNc2c(C#N)c(C)nn2-c2cccc(NC(C)=O)c2)cc(Cl)c1O`, the EC50 in series [1] was greater than 10000 nM.
Consider `CCC(=O)Nc1cc(CNc2c(C#N)c(C)nn2-c2cccc(-c3cccc(OC)c3)c2)cc(Cl)c1O`, for which the EC50 in series [1] is greater than 100 nM. Further, the Activity entry in series [2] was “Toxic”.
Regarding `CCC(=O)Nc1cc(CNc2c(C#N)c(C)nn2-c2cccc(-c3ccc(OC)cc3)c2)cc(Cl)c1O`, the EC50 in series [1] was greater than 100 nM. Further, in series [2], the Activity entry is “Toxic”.
In the case of `CCC(=O)Nc1cc(CNc2c(C#N)c(C)nn2-c2ccccc2)cc(Cl)c1O`, the EC50 in series [1] was 360 nM.
With `CCC(=O)Nc1cc(CNc2c(C#N)c(C)nn2-c2cccc(C(F)(F)F)c2)cc(Cl)c1O`, in series [1], the EC50 was greater than 100 nM. For the same compound, in series [2], the Activity result is “Toxic”.
Turning to `CCC(=O)Nc1cc(CNc2c(C#N)c(C)nn2-c2ccccc2C)cc(Cl)c1O`, the EC50 in series [1] is greater than 1000 nM. For the same compound, in series [3], the Activity result is “Toxic”.
With `CCC(=O)Nc1cc(CNc2c(C#N)c(-c3ccccc3)nn2-c2ccccc2)cc(Cl)c1O`, the EC50 in series [1] was greater than 10000 nM.
Still for that read-out and setting: as for `CCC(=O)Nc1cc(CNc2cc(C)nn2-c2ccccc2)cc(Cl)c1O`, the figure is greater than 10000 nM.
Regarding `CCC(=O)Nc1cc(CNc2c(C#N)c(C)nn2-c2cccc(-c3ccccc3)c2)cc(Cl)c1O`, the EC50 in series [1] is 130 nM. Besides, in series [2], the Activity entry was “Toxic”.
Consider `CCC(=O)Nc1cc(CNc2c(C#N)c(C)nn2-c2cccc(-c3cccc(Cl)c3)c2)cc(Cl)c1O`, for which, in series [1], the EC50 is greater than 100 nM. In addition, the Activity entry in series [2] is “Toxic”.
With `CCC(=O)Nc1cc(CNc2c(C#N)c(C)nn2-c2cccc([N+](=O)[O-])c2)cc(Cl)c1O`, the EC50 in series [1] is greater than 1000 nM. Further, in series [3], the Activity entry is listed as “Toxic”.
In the case of `CCC(=O)Nc1cc(CNc2c(C#N)c(C)nn2-c2cccc(-c3ccncc3)c2)cc(Cl)c1O`, the EC50 in series [1] is greater than 1000 nM. Moreover, the Activity entry in series [3] is listed as “Toxic”.
Take `CCC(=O)Nc1cc(CNc2c(C#N)cnn2-c2ccccc2)cc(Cl)c1O`: the EC50 in series [1] is greater than 1000 nM. In addition, the Activity entry in series [3] is given as “Toxic”.
`CCC(=O)Nc1cc(CNc2c(C#N)c(C)nn2-c2cccc(-c3ccc(Cl)cc3)c2)cc(Cl)c1O`: in series [1], the EC50 was greater than 100 nM. In addition, in series [2], the Activity entry is “Toxic”.
For `CCC(=O)Nc1cc(CNc2c(C#N)c(C)nn2-c2cccc(OC)c2)cc(Cl)c1O`, in series [1], the EC50 was greater than 10000 nM.
As to `CCNC(=O)c1cc(CNc2c(C#N)c(C)nn2-c2ccccc2)cc(Cl)c1O`, the EC50 in series [1] was greater than 1000 nM. Also, the Activity entry in series [3] was “Toxic”.
For the compound `CCC(=O)Nc1cc(CNc2c(C#N)c(C)nn2-c2cccc(-c3cnc4ccccc4c3)c2)cc(Cl)c1O`, in series [1], the EC50 is greater than 100 nM. Besides, the Activity entry in series [2] was “Toxic”.
Take `CCC(=O)Nc1cc(CNc2c(C#N)c(C)nn2-c2ccc3ccccc3c2)cc(Cl)c1O`: the EC50 in series [1] was greater than 1000 nM. In addition, in series [3], the Activity entry is given as “Toxic”.
For `CCC(=O)Nc1cc(CNc2c(C#N)c(C)nn2-c2nccc3ccccc23)cc(Cl)c1O` the same measures were greater than 1000 nM and “Toxic”.
Regarding `CCC(=O)Nc1cc(CNc2c(C#N)c(CC)nn2-c2ccccc2)cc(Cl)c1O`, the EC50 in series [1] was greater than 10000 nM.
For `CCC(=O)Nc1cc(CNc2c(C#N)c(C)nn2-c2cc(Cl)cc(Cl)c2)cc(Cl)c1O`, the EC50 in series [1] was greater than 1000 nM. Besides, in series [3], the Activity entry is listed as “Toxic”.
Take `CCC(=O)Nc1cc(CNc2c(C#N)c(C)nn2-c2cccc(C)c2)cc(Cl)c1O`: the EC50 in series [1] was determined as 370 nM. Besides, the Activity entry in series [3] is recorded as “Toxic”.
`CCC(=O)Nc1cc(CNc2c(C#N)c(C)nn2-c2cccc(-c3ccccc3OC)c2)cc(Cl)c1O`: in series [1], the EC50 is greater than 100 nM. For the same compound, the Activity result in series [2] is listed as “Toxic”.
With `CCC(=O)Nc1cc(/C=C/c2c(C#N)c(C)nn2-c2ccccc2)cc(Cl)c1O`, the EC50 in series [1] stood at 440 nM.
Same read-out and setting: the figure for `CCC(=O)Nc1cc(CNc2c(C#N)c(C)nn2-c2ccccc2)cc(C)c1O` is greater than 10000 nM; for `CCC(=O)Nc1cc(CNc2c(C#N)c(C)nn2C)cc(Cl)c1O` it is greater than 10000 nM.
For the compound `CCC(=O)Nc1cc(Cl)cc(CNc2c(C#N)c(C)nn2-c2ccccc2)c1`, in series [1], the EC50 was greater than 10000 nM.
Regarding `CCC(=O)Nc1cc(CNc2c(C#N)c(C)nn2-c2ccccc2)ccc1O`, the EC50 in series [1] is greater than 10000 nM.
In the case of `CCC(=O)Nc1cc(CNc2c(C#N)c(C)nn2-c2cccc3ccccc23)cc(Cl)c1O`, the EC50 in series [1] was greater than 1000 nM. In addition, in series [3], the Activity result was “Toxic”.
As to `CCCCCC(=O)Nc1cc(CNc2c(C#N)c(C)nn2-c2ccccc2)cc(Cl)c1O`, the EC50 in series [1] is greater than 10000 nM.
For the compound `CCC(=O)Nc1cc(CNc2c(C#N)c(C)nn2-c2cccc(F)c2)cc(Cl)c1O`, the EC50 in series [1] is 330 nM. The Activity entry in series [3] is listed as “Toxic”.
`CCC(=O)Nc1cc(CNc2c(C#N)c(C)nn2-c2cccc(-c3ccccc3C)c2)cc(Cl)c1O`: in series [1], the EC50 was greater than 100 nM. In addition, the Activity result in series [2] was “Toxic”.
Regarding `CCC(=O)Nc1cc(CNc2c(C#N)c(C)nn2-c2ccc(C)cc2)cc(Cl)c1O`, in series [1], the EC50 was greater than 1000 nM. In series [3], the Activity result is given as “Toxic”.
Take `CCC(=O)Nc1cc(CNc2c(C#N)c(C)nn2-c2cccc(-c3cccc(C)c3)c2)cc(Cl)c1O`: the EC50 in series [1] came to 58 nM. The Activity result in series [2] is “Toxic”.
On to `CCC(=O)Nc1cc(CNc2c(C#N)c(C)nn2-c2cccc(-c3ccccc3Cl)c2)cc(Cl)c1O`, for which the EC50 in series [1] is 250 nM. The Activity entry in series [3] is reported as “Toxic”.
For `CCC(=O)Nc1cc(CNc2c(C#N)c(C)nn2-c2ccccc2)cc(Cl)c1OC`, in series [1], the EC50 is greater than 10000 nM.
As for `CCC(=O)Nc1cc(CNc2c(C#N)c(C)nn2-c2cccc(-c3ccc(Cl)c(Cl)c3)c2)cc(Cl)c1O`, in series [1], the EC50 worked out at 47 nM. Also, in series [2], the Activity entry was “Toxic”.
As to `CC(=O)Nc1cc(CNc2c(C#N)c(C)nn2-c2ccccc2)cc(Cl)c1O`, the EC50 in series [1] is greater than 1000 nM. Moreover, the Activity result in series [3] was “Toxic”.
Turning to `CCC(=O)Nc1cc(CNc2c(C#N)c(C)nn2-c2cccc(-c3ccc4ccccc4c3)c2)cc(Cl)c1O`, in series [1], the EC50 was greater than 100 nM. Moreover, the Activity entry in series [2] was “Toxic”.
Consider `CCC(=O)Nc1cc(CNc2c(C#N)c(C)nn2-c2cccc(-c3ccc(C)cc3)c2)cc(Cl)c1O`, for which the EC50 in series [1] worked out at 97 nM. Besides, in series [2], the Activity result is on record as “Toxic”.
